Results on 4 molecules are retold here after paper PMC6009881, “New sulfurated derivatives of cinnamic acids and rosmaricine as inhibitors of STAT3 and NF-κB transcription factors” (Journal of Enzyme Inhibition and Medicinal Chemistry, 2017).

The target of data set [1] is T1, STAT3-SH2 domain (Homo sapiens, UniProt P40763). Briefly: STAT AlphaScreen-based assay (STAT3). The class given is binding. As to conditions: AlphaScreen assay; for IC50: read-out: STAT3 IC50 ±SD; for inhibition at 30 µM: read-out: STAT3 % inhibition ± SD at 30 μM. In general terms: Bead proximity is the source of the signal in Alpha formats.
T1 sequence (P40763 whole entry, the tested form may be a part): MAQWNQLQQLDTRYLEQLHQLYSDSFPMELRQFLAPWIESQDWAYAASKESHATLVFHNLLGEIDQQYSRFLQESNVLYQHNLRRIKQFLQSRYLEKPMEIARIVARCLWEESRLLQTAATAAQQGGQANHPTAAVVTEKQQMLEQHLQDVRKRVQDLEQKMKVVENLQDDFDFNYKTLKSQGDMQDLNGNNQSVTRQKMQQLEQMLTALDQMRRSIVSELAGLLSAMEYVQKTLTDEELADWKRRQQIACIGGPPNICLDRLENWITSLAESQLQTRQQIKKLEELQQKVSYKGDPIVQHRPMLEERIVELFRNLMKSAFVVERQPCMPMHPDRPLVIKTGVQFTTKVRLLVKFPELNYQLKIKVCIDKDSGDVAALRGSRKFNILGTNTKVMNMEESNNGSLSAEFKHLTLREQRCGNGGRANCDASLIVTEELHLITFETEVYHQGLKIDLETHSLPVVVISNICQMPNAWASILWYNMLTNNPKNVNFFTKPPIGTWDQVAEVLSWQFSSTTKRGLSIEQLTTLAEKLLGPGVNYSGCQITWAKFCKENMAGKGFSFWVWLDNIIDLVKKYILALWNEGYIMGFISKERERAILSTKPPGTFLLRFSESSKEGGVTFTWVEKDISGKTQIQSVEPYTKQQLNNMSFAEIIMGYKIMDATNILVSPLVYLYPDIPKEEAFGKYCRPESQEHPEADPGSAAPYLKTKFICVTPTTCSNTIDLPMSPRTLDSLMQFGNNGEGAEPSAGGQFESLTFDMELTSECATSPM
A further data set deals with STAT3. As to conditions: in some settings; read-out: STAT3 inhibition IC50; cited from earlier work.
For the next data set, the target named is T2, SH2-domain of STAT1 (Homo sapiens, UniProt P42224).
T2 sequence (P42224 1-750): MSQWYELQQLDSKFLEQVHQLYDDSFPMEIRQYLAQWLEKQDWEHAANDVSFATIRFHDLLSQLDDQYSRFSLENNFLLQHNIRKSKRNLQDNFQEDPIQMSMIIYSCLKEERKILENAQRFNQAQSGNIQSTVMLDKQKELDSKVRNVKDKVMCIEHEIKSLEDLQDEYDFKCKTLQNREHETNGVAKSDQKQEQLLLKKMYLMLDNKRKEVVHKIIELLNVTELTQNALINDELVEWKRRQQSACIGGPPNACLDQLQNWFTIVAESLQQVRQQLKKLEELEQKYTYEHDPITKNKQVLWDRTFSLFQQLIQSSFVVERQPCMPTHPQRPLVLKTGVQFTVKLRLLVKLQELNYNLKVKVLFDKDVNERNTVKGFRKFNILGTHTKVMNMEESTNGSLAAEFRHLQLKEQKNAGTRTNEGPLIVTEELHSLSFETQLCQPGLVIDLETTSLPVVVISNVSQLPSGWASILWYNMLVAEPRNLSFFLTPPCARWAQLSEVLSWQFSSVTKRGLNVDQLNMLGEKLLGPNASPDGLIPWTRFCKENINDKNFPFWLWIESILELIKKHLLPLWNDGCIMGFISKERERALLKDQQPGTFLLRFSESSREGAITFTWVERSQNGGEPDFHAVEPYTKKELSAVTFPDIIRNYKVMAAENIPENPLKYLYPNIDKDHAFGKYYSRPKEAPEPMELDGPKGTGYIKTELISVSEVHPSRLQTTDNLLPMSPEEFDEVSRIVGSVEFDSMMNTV
Briefly: STAT AlphaScreen-based assay (STAT1 selectivity). It counts as binding. As to conditions: for inhibition at 30 µM: read-out: STAT1 % inhibition ± SD at 30 μM, 30 μM; for IC50: read-out: STAT1 IC50 ±SD. As to the method: STAT3 inhibitory activity of the described compounds was tested by the AlphaScreen-based assay to evaluate the potential inhibition of the interaction between STAT3-SH2 domain and pTyr-containing peptides according to the previously reported procedure. For the most interesting compounds, selectivity tests versus STAT1 were performed.
The new sulfurated-drug hybrids, together with their parent compounds have been submitted to the AlphaScreen-based assay, to investigate their ability to bind STAT3 directly, through the evaluation of the inhibition of the binding of SH2-containing proteins to their correspondent phosphopeptides, the physiological ligands. […] Since AlphaScreen is a cell-free assay, not always there is a correspondence between the potency of STAT3 inhibition and cytotoxicity, probably due to not optimal physicochemical properties of the tested compounds, such as solubility and chemical stability in the culture medium and cell permeation.

Data set [2] concerns lymphocytic leukemia P388. Also on record: method as in PMID 8003178. The settings on record: injected i.p. in mice, 24 h after the tumor implants; data from National Cancer Institute; cited from earlier work.
In a further data set the test system is HCT-116 cells. Briefly: MTT assay, cytotoxicity on HCT-116. It counts as cell-based, human. As to conditions: for IC50 at 48 h: human, HCT-116 cells. As to the method: Following the same protocol used for previous cytotoxicity assays by N. Ferri[55], cells were seeded in 48-well plate (40.000 cells/well) and, after 24 h, they were incubated with different concentrations of our compounds for 48 h.
The determination of the conversion of MTT (3-(4,5-dimethyl-2-thiazolyl)-2,5-diphenyl-2H-tetrazolium bromide) to formazan was determined by using a commercially available kit (Millipore, Billerica, MA), according to the manufacturer’s instructions.
(In general: Tetrazolium dyes change colour on reduction, which living cells bring about.)

The test system of data set [3] is NF-κB promoter activity in HCT-116 cells. The data set is described as follows: Luciferase reported NF-κB promoter activity assay. As to conditions: Homo sapiens, 2 h pre-treatment, TNF-α 10 ng/ml, NA = not active up to 100 μM, read-out: NF-κB promoter assay (HCT-116) IC50 ±SD. The class given is cell-based. The protocol:
To measure the NF-κB promoter activity, HCT-116 cells were seeded in 100 mm dish and transiently transfected with 6 μg of DNA (NF-κB plasmid, containing luciferase reporter gene[57] with turbofect reagent (Carlo Erba Reagents). After 24 h, cells were seeded in 48-well plates (40.000 cells per well). On the next day, cells were incubated with our compounds for 2 h (pre-treatment) and then TNF-α was added in every well at (10 ng/ml). After 5–6 h, luciferase activity was measured by using Neolite reagent (PerkinElmer Life Sciences, Waltham, MA) according to the manufacturer’s instructions.

Data set [4] has as its system STAT3 reporter activity in HeLa cells. The data set is described as follows: STAT3 luciferase reporter gene assay. The class given is cell-based. The settings on record: Homo sapiens, 2 h pretreatment, oncostatin M 10 ng/ml 4 h, read-out: STAT3 reporter assay (HeLa) IC50 ±SD. The protocol:
STAT3 reporter HeLa stable cell lines (Signosis Inc, Santa Clara, CA) were incubated in a 96-well microplate for 24 h. Cells were pretreated with test compounds for 2 h, and 10 ng/ml (w/v) of oncostatin M were applied and incubated for 4 h. Cells were washed with medium not supplemented with phenol red, and Steady-Glo® reagent (Promega, Madison, WI) was applied. After 15 min incubation, the signals were detected by ARVO Light 1420 (PerkinElmer Life Sciences, Waltham, MA). The relative signal intensity was calculated in each well as the ratio for the mean signal of vehicle.
In general terms: A reporter such as luciferase makes a cellular process visible.

For data set [5], the system named is human smooth muscle cells (hSMC). Briefly: Cytotoxicity versus normal human smooth muscle cells. The class given is cell-based.
Data set [6] relates to MCF-7 (hormone sensitive breast cancer) cells. Briefly: Cytotoxicity against MCF-7 cells. The class given is cell-based. The settings on record: in comparison to HCT-116.
For data set [7], the system named is PC3 subcutaneous xenografts. Also on record: method as in PMID 18266964. As to conditions: in vivo; cited from earlier work.
Data set [8] deals with different tumoral cell lines. Set-up: method as in PMID 18266964, PMID 22212895. The settings on record: cited from earlier work.
The target of data set [9] is T1, STAT3-SH2 domain. Also on record: method as in PMID 28097912. As to conditions: maximum tested concentration 30 μM; read-out: STAT3-SH2 domain binding IC50 (AlphaScreen), previously described hybrids; cited from earlier work.
[10] abbreviates: MTT assay, 48 h, NA = not active up to 100 μM, read-out: Cytotoxicity (HCT-116) IC50 ±SD.

Where two headings read alike, the source gives them in different places.

One may read the IC50 as the concentration needed to halve the response being measured. On to `O=C(O)/C=C/c1ccc(O)c(O)c1` [Compound 19, caffeic acid, reference compound], for which the IC50 on STAT3-SH2 domain [1] was greater than 30 µM; with STAT3, 70 to 100 µM.

A word on the melting point: it is the temperature of the solid-liquid transition. As a reminder, the inhibition is the drop in the measured response relative to a control, in per cent. The molecule `CC(C)c1cc2c(c(O)c1O)C13CCCC(C)(C)C1C(OC3=O)C2N` (stereo not drawn) [Compound 30, rosmaricine] displayed a melting point of 198.2 to 202.5 °C. For the same molecule, on SH2-domain of STAT1, the inhibition at 30 µM stood at 91.8% and the IC50 was 10 ± 0.6 µM. Further, in [2], the “activity against lymphocytic leukemia P388” value is “inactive or endowed with borderline activity”. Further, on STAT3-SH2 domain [1], the half-maximal inhibitory concentration (IC50) was 1.9 ± 0.1 µM and the inhibition at 30 µM amounted to 99.7%. In the data set on HCT-116 cells (setting [10]), the half-inhibitory concentration (IC50) is 65.2 ± 2.3 µM and the half-inhibitory concentration (IC50) at 48 h worked out at 65 µM. The half-maximal inhibitory concentration (IC50) in [3] is 43.4 ± 6.9 µM. In addition, in [4], the concentration for half-maximal inhibition (IC50) is 42.4 ± 2.4 µM.

For the molecule `C=CCSSCCC(=O)NC1c2cc(C(C)C)c(O)c(O)c2C23CCCC(C)(C)C2C1OC3=O` (stereo not drawn) [Compound 32, N-[3-(allyldisulfanyl)propanoyl]rosmaricine], the melting point was in the range of 206.9 to 209.2 °C. Also, the “selectivity index (hSMC versus HCT-116)” value in [5] came to 6. The molecule also returned an IC50 in data set [5] (Homo sapiens, HSMC) of 21.2 µM. On SH2-domain of STAT1, the inhibition at 30 µM turned out to be 23.9 ± 0.4% and the 50% inhibitory concentration (IC50) was greater than 30 µM. Also, at STAT3-SH2 domain [1], the IC50 is 2.3 ± 0.4 µM and the inhibition at 30 µM was found to be 99.5%. The “fold increase of antiproliferative activity” value in the data set on HCT-116 cells (HCT-116, in comparison to rosmaricine) turned out to be 19 fold. The 50% inhibitory concentration (IC50) at 48 h with HCT-116 cells (setting [10]) amounted to 3.5 ± 2.8 µM. Also, the concentration for half-maximal inhibition (IC50) in [3] was determined as 13 ± 0.7 µM. The “cytotoxicity against MCF-7 cells” value in data set [6] is on record as “confirmed, even at lower level”. Besides, the IC50 in data set [4] worked out at 37 ± 0.8 µM.

As to `CCCC(CCC)C(=O)OCCSS(C)(=O)=O` [a, 2-((methylsulfonyl)thio)ethyl 2-propylpentanoate], in [7], the “growth of PC3 in subcutaneous xenografts” value is given as “inhibited the growth of PC3 in subcutaneous xenografts”. In addition, in [8], the “in vitro antiproliferative activity” value is listed as “good antiproliferative activity in micromolar concentrations”. Besides, the IC50 at STAT3-SH2 domain [9] is 0.7 µM.
